Test results: patent publication US7893070B2, “Method of treating parturient placental mammals in order to reduce maternal and/or uterine exhaustion” (priority 2005, dated 2011)

What was measured:
[1] = system: sows; experiment: Caffeine suppository to sows after birth of first piglet; indices of piglet health and birth interval; type: in vivo, swine
Source text: In commercial swine production, typically 8% of the fetuses are stillborn, and 12% of the newborn piglets die prior to weaning (SIVA, 2005). Oxygen deprivation during the birth process is an important causal factor for both stillbirths and neonatal mortality. An indicator for oxygen deprivation is umbilical (blood) pH. This pH is typically 7.4, but upon oxygen deprivation CO2 accumulates in the blood and tissues resulting in a drop in pH. If this drop is severe enough, it will result in the death of the fetus. A moderate drop in pH may not be lethal but may inflict sufficient metabolic damage such that it affects the health and fitness of the newborn and thus its chances of survival. Measurements of umbilical (blood) pH confirmed that this pH drops as the length of parturition increases. Previous work by Randall (1971) has shown a good correlation between umbilical pH and livability of piglets (FIG. 1).
Infrared radiation temperature is another indicator of metabolic health of a mammal. A strong correlation between infrared temperature and survival chances for newborn pigs has been shown. This infrared temperature was obtained by collecting piglets at birth, immediately drying them, and measuring infrared temperature. In a first experiment, 7 sows received a caffeine-comprising suppository (1-2 mg/kg BW, or 400-600 mg) after the birth of the first piglet in a litter. The indices of piglet health as described here above were compared to those of a control group of 6 sows. […] (P=0.04).

[2] = system: sows; experiment: 400 mg caffeine oral paste to sows after birth of first piglet; duration of parturition; type: in vivo, swine; conditions: 400 mg oral paste; controls 159 minutes
Experimental: In a second experiment, 19 sows received 400 mg of caffeine comprised in a paste for oral ingestion, in accordance with the invention, after the birth of the first piglet while 19 sows served as untreated controls.
Practically, some untreated animals delivered their litter expediently and with few problems, but there were a substantial number of mothers for whom parturition became a lengthy process.

[3] = Uptake of caffeine into blood (serum) of pregnant sows
Experimental: Blood samples were collected pre-administration and at multiple time points post administration through an ear-vein catheter such that the uptake of caffeine into the blood (serum) could be modelled. Besides the caffeine level, the levels of its main metabolites paraxanthine, theophylline, and theobromine were determined.
This pool was not modelled.

[4] = system: sows; experiment: 900 mg caffeine oral paste, Velddriel research station; stillbirth and piglet mortality; type: in vivo, swine; conditions: 900 mg oral paste
Experimental: The method of treatment according to the present invention was further tested at the Provimi research station in Velddriel, the Netherlands, in three farrowing groups. In the Velddriel facility farrowings are not attended by (veterinary) personnel and parturition is thus not actively managed. Stillbirth and mortality rates are thus in line with commercial practices.
Sows were assigned to treatment based on parity. Overall, 27 sows served as controls and 29 were treated in accordance with the present invention when they were expected to farrow in the next 8 hours. Treated sows were administered 900 mg of caffeine comprised in a paste for oral ingestion, in accordance with the invention.

[5] = Transfer of caffeine from the mother to piglets (blood at birth) and colostrum; type: in vivo, swine; conditions: 900 mg oral paste to sow; same time-point
Source text: In order to assess whether caffeine was transferred from the mother to the piglets, blood samples were collected from several piglets at the time of birth and samples from colostrum were taken. […] The concentrations found were dependent on the time relative to dosing the treatment composition. For piglets at birth, they were roughly ¼^th the concentration in the mother at that time-point, and in milk they were roughly ⅙^th the concentration in the mother at that time-point. Values observed were in the range of 0.1 to 1.5 mg/L.

[6] = system: sows; experiment: 900 mg caffeine oral paste, actively managed farm in Bieganow; type: in vivo, swine; conditions: for increase in feed consumption of sows: vs control
Experimental: The method of treatment according to the present invention was further tested at a well-managed farm in Bieganow, Poland. In this facility farrowings are attended by (veterinary) personnel and parturition is actively managed. As a result, stillbirth rates are extremely low (0.33 piglets per litter or 3% of the piglets).
At this farm, 89 sows comprising one farrowing group were available for the test. These sows were assigned to receive either a 900 mg of caffeine containing paste in accordance with the invention or no treatment, based on parity, body condition, and historical performance. The treatment composition was administered orally to selected sows when they were expected to farrow in the next 8 hours.

[7] = system: sows; conditions: intravenous injection of 0.5 mg/50 kg bodyweight, cited from earlier work

SMILES	increase of piglet umbilical (blood) pH ([1]; suppository 1-2 mg/kg BW (400-600 mg) vs control sows, P=0.03) [units]	increase of piglet infrared radiation temperature ([1]; suppository 1-2 mg/kg BW (400-600 mg) vs control sows, P=0.04) [°C]	numerical increase of birth interval between subsequent piglets ([1]; suppository, P=0.11 (control 9 minutes, P<0.01))	mean time interval between the birth of the first and 10th piglet [2] [min]	half-life ([3]; female, pig, in vivo) [h]	peak blood concentration, second compartment ([3]; pregnant sows, 940 mg of caffeine administered (half that for the 470 mg dose)) [µM]	time of peak blood concentration, second compartment ([3]; pregnant sows, post administration) [h]	bio-availability ([3]; pregnant sows, assuming caffeine distributed in 60% of body mass) [%]	stillborn piglets per litter ([4]; expected to farrow in next 8 hours, control 0.89) [piglets per litter]	piglets died or euthanized for being weak after parturition ([4]; control 1.15) [piglets per litter]	caffeine concentration in milk relative to the concentration in the mother [5]	caffeine concentration in piglets at birth relative to the concentration in the mother [5]	difference in stillbirths between treatment groups ([6]; 900 mg oral paste vs no treatment)	assistance rate ([6]; 900 mg oral paste, control group 26%) [%]	sows requiring medical care post-farrowing ([6]; 900 mg oral paste, control group seven sows (one died))	increase in feed consumption of sows ([6]; first day post farrowing) [%]	increase in feed consumption of sows ([6]; first five days post farrowing) [%]	piglets heavier than controls at weaning ([6]; piglets from treated sows) [%]	stillbirth rate ([7]; reduced from 8.3) [%]	rate of deliveries lasting more than six hours ([7]; reduced from 14.5) [%]
Cn1c(=O)c2c(ncn2C)n(C)c1=O [caffeine]	0.044±0.020	0.60±0.29	3.6 minutes for each hour into parturition	110	~22	~5	8	44	0.31	0.48	roughly ⅙	roughly ¼	no statistically significant differences	18	no sows required medical care	14	10	9	–	–
CC(C)NCC(O)COc1cccc2[nH]c3ccccc3c12 (centres unmarked) [carazolol]	–	–	–	–	–	–	–	–	–	–	–	–	–	–	–	–	–	–	7.1	11.0
